Measurements: ChEMBL document CHEMBL3091433, “Structure-based design of substituted hexafluoroisopropanol-arylsulfonamides as modulators of RORc” (Bioorg Med Chem Lett, 2013)

How the values were obtained:
Bile acid receptor = target: T1, Bile acid receptor (Homo sapiens, UniProt Q96RI1); assay: Agonist activity at GAL4-fused human FXR expressed in HEK293T cells assessed as activation of basal transcriptional activity after 20 hrs by dual-glo luciferase reporter gene assay; format: cell-based, HEK-293T
T1 sequence (Q96RI1 whole entry): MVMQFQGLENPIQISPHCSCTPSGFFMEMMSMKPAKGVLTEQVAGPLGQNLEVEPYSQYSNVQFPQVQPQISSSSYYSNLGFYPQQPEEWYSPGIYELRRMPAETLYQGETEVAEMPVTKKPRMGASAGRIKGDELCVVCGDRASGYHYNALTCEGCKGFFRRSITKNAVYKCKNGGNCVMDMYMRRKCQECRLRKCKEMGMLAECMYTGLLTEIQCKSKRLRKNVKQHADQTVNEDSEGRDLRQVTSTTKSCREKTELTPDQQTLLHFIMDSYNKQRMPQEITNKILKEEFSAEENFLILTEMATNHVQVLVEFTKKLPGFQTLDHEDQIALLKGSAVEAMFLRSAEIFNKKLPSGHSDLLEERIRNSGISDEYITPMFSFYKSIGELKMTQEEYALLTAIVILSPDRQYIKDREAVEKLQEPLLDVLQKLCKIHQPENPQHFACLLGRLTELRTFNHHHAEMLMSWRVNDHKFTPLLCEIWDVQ

[1] = target: T2, Nuclear receptor subfamily 1 group I member 2 (Homo sapiens, UniProt O75469); assay: Agonist activity at GAL4-fused human PXR expressed in HEK293T cells assessed as activation of basal transcriptional activity after 20 hrs by dual-glo luciferase reporter gene assay; format: cell-based, HEK-293T
T2 sequence (O75469 whole entry): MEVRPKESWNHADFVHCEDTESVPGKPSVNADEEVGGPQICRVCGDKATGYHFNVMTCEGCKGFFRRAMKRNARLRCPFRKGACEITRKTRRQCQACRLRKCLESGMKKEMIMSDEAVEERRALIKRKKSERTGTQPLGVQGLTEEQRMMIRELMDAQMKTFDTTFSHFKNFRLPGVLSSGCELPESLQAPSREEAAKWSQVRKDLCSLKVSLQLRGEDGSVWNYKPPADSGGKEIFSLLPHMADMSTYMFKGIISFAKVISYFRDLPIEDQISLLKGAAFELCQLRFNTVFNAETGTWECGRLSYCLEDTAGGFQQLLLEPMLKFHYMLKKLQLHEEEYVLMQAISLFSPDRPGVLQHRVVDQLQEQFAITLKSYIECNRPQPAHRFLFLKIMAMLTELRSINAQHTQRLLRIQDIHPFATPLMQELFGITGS

[2] = target: T3, Oxysterols receptor LXR-beta (Homo sapiens, UniProt P55055)
T3 sequence (P55055 whole entry): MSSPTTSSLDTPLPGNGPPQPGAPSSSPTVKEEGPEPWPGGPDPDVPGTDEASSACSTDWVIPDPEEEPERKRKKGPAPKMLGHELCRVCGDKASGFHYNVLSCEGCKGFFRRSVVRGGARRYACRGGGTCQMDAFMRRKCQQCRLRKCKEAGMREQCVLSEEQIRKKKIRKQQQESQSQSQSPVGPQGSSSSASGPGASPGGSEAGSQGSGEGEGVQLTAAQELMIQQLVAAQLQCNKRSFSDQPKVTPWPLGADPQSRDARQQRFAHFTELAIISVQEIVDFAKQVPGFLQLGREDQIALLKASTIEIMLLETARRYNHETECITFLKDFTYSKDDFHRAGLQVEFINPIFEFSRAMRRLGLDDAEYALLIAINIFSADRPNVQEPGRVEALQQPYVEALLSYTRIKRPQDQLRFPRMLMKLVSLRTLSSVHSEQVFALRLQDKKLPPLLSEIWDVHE
Description: Agonist activity at GAL4-fused human LXRbeta expressed in HEK293T cells assessed as activation of basal transcriptional activity after 20 hrs by dual-glo luciferase reporter gene assay

PBMC [3] = assay: Antiinflammatory activity in human PBMC assessed as inhibition of IL-17 production after 48 hrs by Sandwich ELISA relative to control; format: functional
PBMC [4] = assay: Inhibition of IFNgamma production in human PBMC after 48 hrs by Sandwich ELISA
PBMC [5] = assay: Cytotoxicity against human PBMC assessed as effect on cell physiology after 48 hrs by CellTiter-Glo assay
PBMC [6] = assay: cells; conditions: Homo sapiens, 48 h

For `CCN(c1ccc(C(O)(C(F)(F)F)C(F)(F)F)cc1)S(=O)(=O)c1ccccc1`, which EC50 (Bile acid receptor) is on record?
Its EC50 is 9000 nM.

And the EC50 [1]?
Its EC50 is 39 nM.

What about the EC50 [2] of the same compound?
The EC50 was 246 nM.

With `N#Cc1ccc(S(=O)(=O)N(CC(F)(F)F)c2ccc(C(O)(C(F)(F)F)C(F)(F)F)cc2)cc1` as the compound, how does the EC50 (Bile acid receptor) read?
The EC50 was 3000 nM.

What about the EC50 [1] of the same compound?
The EC50 was 571 nM.

What about the Imax (PBMC [3]) of the same compound?
Its Imax is 74%.

And the EC50 [2]?
The EC50 was 902 nM.

What about the EC50 (PBMC [4]) of the same compound?
Its EC50 is > 20000 nM.

And the EC50 (PBMC [5])?
The EC50 was > 20000 nM.

What about the EC50 (PBMC [6]) of the same compound?
The EC50 was 1000 nM.

Which EC50 (Bile acid receptor) does the source give for `O=S(=O)(c1ccc(F)cc1)N(CC(F)(F)F)c1ccc(C(O)(C(F)(F)F)C(F)(F)F)cc1` here?
The EC50 was 1000 nM.

What about the EC50 [1] of the same compound?
Its EC50 is 194 nM.

And the Imax (PBMC [3])?
Its Imax is 83%.

What about the EC50 [2] of the same compound?
The EC50 was 385 nM.

And the EC50 (PBMC [4])?
Its EC50 is > 20000 nM.

And the EC50 (PBMC [5])?
The EC50 was > 20000 nM.

What about the EC50 (PBMC [6]) of the same compound?
Its EC50 is 132 nM.
